Read-outs that look alike come from different tables or passages of the source. Marks after values point to notes of the source that are not given here.
Legend:
hFXR = target: T1, hFXR (Homo sapiens, UniProt Q96RI1); assay: Alphascreen coactivator recruitment assay on FXR; conditions: Table 6; coactivator recruitment (Alphascreen)
T1 sequence (Q96RI1 262-486 limits assumed): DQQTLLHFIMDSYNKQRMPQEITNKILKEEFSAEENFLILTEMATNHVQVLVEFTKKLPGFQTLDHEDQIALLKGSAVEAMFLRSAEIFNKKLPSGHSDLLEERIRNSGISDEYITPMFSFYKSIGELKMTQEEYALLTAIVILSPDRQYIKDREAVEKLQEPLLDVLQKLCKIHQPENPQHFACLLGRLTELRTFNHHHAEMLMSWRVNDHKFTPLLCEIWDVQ
Experimental: Activity on FXR was assayed by using Alphascreen technology in a coactivator recruitment assay. AlphaScreen is a bead-based chemistry assay used to study biomolecular interactions. Binding of molecules captured on the beads leads to an energy transfer from one bead to the other, ultimately producing a luminescent signal. When the partners interact, chemical energy is transferred from Donor to Acceptor beads and a signal is produced. Upon bile acids stimulation the GST-FXR-LBD interacts with the Src-1 peptide. Anti-GST-coated Acceptor beads were used to capture the GST-fusion FXR-LBD whereas the biotinylated-SRC-1 peptide was captured by the streptavidin Donor beads. Upon illumination at 680 nm chemical energy is transferred from Donor to Acceptor beads across the complex streptavidin-Donor/Src-1-Biotin/GSTFXR-LBD/Anti-GST-Acceptor and a signal is produced. The assay was performed in white, low-volume, 384-well Optiplates (PerkinElmer) using a final volume of 25 μl containing final concentrations of 10 nM of purified GST-tagged FXR-LBD protein, 30 nM biotinylated Src-1 peptide, 20 μg/ml anti-GST acceptor beads acceptor beads and 10 μg/ml of streptavidin donor bead (PerkinElmer). […] After the addition of the detection mix (acceptor and donor beads), the plates were incubated in the dark for 4 h at room temperature and then were read with an Envision microplate analyzer (PerkinElmer). […]

[1] = Critical micellar concentration by surface tension measurements; type: physicochemical; conditions: […] NaCl water solution
Experimental: The critical micellar concentration (CMC) was determined by surface tension (ST) measurements using a maximum bubble-pressure method which give surface tension values slightly affected by potential impurities […] static methods. […] The surface tension values were plotted against the logarithm of the bile salt concentration; the regression lines corresponding to the two parts of the curve (monomeric and micellar phases) were calculated using the method of least squares, and the intersection of the lines was taken as the CMC value. From the ST vs concentration curves the value of the surface tension at the CMC (equilibrium between monomers and multimers species) was also calculated giving information about the detergency power which is related to the size of the micelles with associate surface tension lowering capacity. The CMC was evaluated by surface tension measurements in non equilibrium conditions i.e. in conditions that impurities slightly affect the surface tension results (FIG. 6). […] The presence of a hydroxyl group in the C-16 beta position reduces the hydrophobic area responsible for back to back interaction, which is to form micelles and therefore, the micelles are small and poorly detergent. This property confers to the molecule a low toxicity when accumulated in a given biological fluid or organ.

intestinal bacteria = assay: In vitro metabolic stability in human stools culture; type: in vitro ADME
Experimental: Homogenized fresh human stools (500 mg) were transferred into sterile vials to which 5 mL of sterilized chopped meat-glucose medium (Scott Lab., Fiskville, R.I.) was added. BAs were then added at a final concentration of 0.05 mM. Vials were incubated at 37° C.; then, at 0, 1, 2, 4, 8 and 24 h after the addition of the BA, the reaction was stopped with 150 μL of 30% KOH. The samples were centrifuged at 3500 rpm for 10 min; from the supernatant the BA were isolated by C-18 solid-phase extraction and analyzed by TLC and HPLC-ES-MS/MS.
Thin-layer chromatography (TLC), utilizing silica gel 0.25 mm thickness plates (Merck, Darmstat, Germany), was employed as the first screening test. The solvent system used for the separation of conjugated BA was composed of propionic acid/isoamyl acetate/water/N-propanol (3:4:1:2, v/v/v/v; solvent I), and that of the unconjugated BA was acetic acid/carbon tetrachloride/isopropyl ether/isoamyl acetate/water/N-propanol/benzene (1:4:6:8:2:2, v/v/v/v/v/v; solvent II).

HepG2 cells [2] = assay: HepG2 apoptosis (caspase-3 activation); type: cell-based; conditions: Homo sapiens, HepG2, 4 h, read-out: APOPTOSIS Caspase-3 activation EC50
HepG2 cells [3] = assay: HepG2 necrosis (LDH release); type: cell-based; conditions: Homo sapiens, HepG2, 4 h, read-out: NECROSIS LDH release EC50
in vitro = conditions: human
[4] = 1-Octanol/water partition coefficient (shake-flask); conditions: bile acids as ionized species, pH 8
Experimental: (§1) The octanol/water partition coefficient was measured for molecules in their ionized form and therefore the carboxy analogues were studied at a relatively high pH (8 to 9) to ensure full ionization of the carboxyl group. The 1-Octanol/water partition coefficient (log P) was evaluated using a conventional shake-flask procedure. […] The aqueous buffer was previously pre-saturated with 1-octanol, 5 ml of 1-octanol pre-saturated with water was then added and the samples were left to equilibrate for 2 weeks under continuous stirring at room temperature. After centrifugation the two phases were carefully separated. […] The flow rate was 150 μal/min and the column was maintained at 45° C.

[5] = Bile fistula rat, femoral (iv) infusion: bile flow, biliary secretion, metabolism; conditions: iv infusion, bile fistula rat
bovine serum albumin [6] = target: T2, bovine serum albumin (Bos taurus, UniProt P02769); assay: Albumin binding by equilibrium dialysis; type: in vitro ADME; set-up: 5% bovine serum albumin-saline solution (pH 7.2); from tissue; host or cells: bovine serum (by the name of the product); conditions: 100 μM BA in 5% bovine serum albumin-saline, pH 7.2
T2 sequence (P02769 25-607): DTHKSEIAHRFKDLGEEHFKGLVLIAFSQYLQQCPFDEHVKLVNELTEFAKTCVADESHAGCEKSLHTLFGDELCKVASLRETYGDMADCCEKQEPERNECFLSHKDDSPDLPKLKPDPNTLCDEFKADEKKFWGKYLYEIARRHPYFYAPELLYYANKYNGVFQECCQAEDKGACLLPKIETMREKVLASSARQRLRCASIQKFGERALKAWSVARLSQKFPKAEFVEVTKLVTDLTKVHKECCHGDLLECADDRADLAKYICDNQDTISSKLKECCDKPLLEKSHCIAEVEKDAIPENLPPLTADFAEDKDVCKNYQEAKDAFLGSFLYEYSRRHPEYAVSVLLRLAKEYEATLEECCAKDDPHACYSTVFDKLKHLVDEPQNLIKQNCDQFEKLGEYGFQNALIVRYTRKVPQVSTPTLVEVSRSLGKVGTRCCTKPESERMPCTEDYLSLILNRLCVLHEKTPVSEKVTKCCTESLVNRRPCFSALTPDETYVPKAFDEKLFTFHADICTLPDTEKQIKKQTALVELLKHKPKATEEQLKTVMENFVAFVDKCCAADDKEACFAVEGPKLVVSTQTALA
Experimental: The extent of albumin binding was evaluated by equilibrium dialysis at a fixed BA-albumin ratio. Each BA was dissolved at a concentration of 100 μM in 5% bovine serum albumin-saline solution (pH 7.2) and left to stand for 24 h at 25° C. Two milliliters of this solution was dialyzed in cellulose sacs having a molecular weight cut-off of 12,000-14,000 Dalton against 25 ml of saline solution. The system was equilibrated by gently shaking for 72 h at 25° C. BA concentrations of the dialyzed solution (corresponding to the free unbound fraction) and of the starting solution were determined with HPLC-ESI-MS/MS in the same conditions of the previous analysis.
The percentage of albumin binding was calculated from the initial BA concentration and from the unbound concentration in the dialyzed fraction.

LXRα = target: T3, LXRα (Homo sapiens, UniProt Q13133); assay: LXR coactivator recruitment (Alphascreen); type: biochemical; conditions: Table 6
T3 sequence (Q13133 1-447): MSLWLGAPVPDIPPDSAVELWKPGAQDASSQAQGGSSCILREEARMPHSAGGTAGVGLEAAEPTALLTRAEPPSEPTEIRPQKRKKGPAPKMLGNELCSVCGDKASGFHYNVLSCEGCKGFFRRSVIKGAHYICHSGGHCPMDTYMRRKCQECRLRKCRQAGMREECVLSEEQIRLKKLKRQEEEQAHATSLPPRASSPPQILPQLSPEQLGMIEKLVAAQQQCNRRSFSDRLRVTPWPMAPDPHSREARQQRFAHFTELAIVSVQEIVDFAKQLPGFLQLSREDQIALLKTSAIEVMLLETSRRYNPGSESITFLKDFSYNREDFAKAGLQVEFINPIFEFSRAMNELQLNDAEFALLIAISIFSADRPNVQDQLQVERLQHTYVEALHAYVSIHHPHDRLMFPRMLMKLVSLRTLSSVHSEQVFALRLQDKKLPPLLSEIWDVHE

CAR = target: T4, CAR (Homo sapiens, UniProt Q14994); assay: CAR coactivator recruitment (Lanthascreen); type: biochemical; conditions: Table 6; *: data representing inverse agonism; read-out: CAR Activation EC50
T4 construct: purchased Invitrogen
T4 sequence (Q14994 109-352 limits assumed): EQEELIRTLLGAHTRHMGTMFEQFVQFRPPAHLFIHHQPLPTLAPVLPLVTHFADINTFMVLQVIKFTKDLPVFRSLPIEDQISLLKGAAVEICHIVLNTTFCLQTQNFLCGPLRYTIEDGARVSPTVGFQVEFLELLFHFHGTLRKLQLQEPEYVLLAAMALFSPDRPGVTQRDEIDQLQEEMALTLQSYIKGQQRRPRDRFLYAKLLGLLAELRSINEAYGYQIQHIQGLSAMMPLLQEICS

VDR = target: T5, VDR (Homo sapiens, UniProt P11473); assay: VDR activation, NR selectivity assay; type: biochemical; conditions: Table 6
T5 construct: purchased Invitrogen
T5 sequence (P11473 127-423 limits assumed): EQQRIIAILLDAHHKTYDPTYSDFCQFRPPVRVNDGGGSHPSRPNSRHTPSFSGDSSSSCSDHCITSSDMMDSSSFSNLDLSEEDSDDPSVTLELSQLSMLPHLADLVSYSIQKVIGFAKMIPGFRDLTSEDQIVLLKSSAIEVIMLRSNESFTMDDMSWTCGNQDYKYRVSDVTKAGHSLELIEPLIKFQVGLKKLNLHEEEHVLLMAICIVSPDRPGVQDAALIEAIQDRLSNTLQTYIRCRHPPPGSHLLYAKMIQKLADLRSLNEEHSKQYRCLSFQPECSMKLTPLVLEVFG

[7] = pH 1
[8] = pH 8
Experimental: as §1

HepG2 cells [9] = system: HepG2 cells
PPARδ = target: T6, PPARδ (Homo sapiens, UniProt Q03181); assay: PPARδ activation, NR selectivity assay; conditions: Table 6
T6 sequence (Q03181 211-439 limits assumed): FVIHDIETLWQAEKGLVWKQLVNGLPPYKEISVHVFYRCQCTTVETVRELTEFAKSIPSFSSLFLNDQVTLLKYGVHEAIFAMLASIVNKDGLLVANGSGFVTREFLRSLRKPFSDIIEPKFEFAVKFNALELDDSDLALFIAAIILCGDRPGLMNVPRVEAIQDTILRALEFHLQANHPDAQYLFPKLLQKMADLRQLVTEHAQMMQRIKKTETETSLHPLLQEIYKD

[10] = […] NaCl water solution; *values from literature; cited from earlier work
bovine serum albumin [11] = target: T2, bovine serum albumin; conditions: cited from earlier work
HepG2 cells [12] = assay: HepG2 cytotoxicity (ATP decrease, ATP-Lite); conditions: read-out: CYTOTOXICITY ATP decrease EC50, 4 h
[13] = previous study, cited from earlier work

C[C@H](CCC(=O)O)[C@H]1CC[C@H]2[C@@H]3[C@H](O)C[C@@H]4C[C@H](O)CC[C@]4(C)[C@H]3C[C@H](O)[C@]12C [CA, cholic acid, reference compound]
FXR Activation EC50 (hFXR): No activity

C[C@H](CCC(=O)O)[C@H]1CC[C@H]2[C@@H]3[C@H](O)C[C@@H]4C[C@H](O)CC[C@]4(C)[C@H]3CC[C@]12C [CDCA, chenodeoxycholic acid, reference compound]
CMC […] Na+ [1]: 3.2 mM
STCMC: Surface Tension at CMC [1]: 45.5 Dyne/cm
Metabolism in human stool cultures (intestinal bacteria): almost completely metabolized
Half-life time in human stool cultures (intestinal bacteria; 7α-dehydroxylation, 0.05 mM, 37° C.): almost one hour
EC50 (HepG2 cells [2]): 890 µM
EC50 (HepG2 cells [3]): > 1000 µM
EC50 at 4 h (in vitro): 650 µM
LogPA-: 1-octanol-water partition coefficient [4]: 2.2
Bile flow with respect to control [5]: No significant differences
Maximum bile flow rate ([5]; control 70): 4.8 mL/h/kg
Albumin Binding (bovine serum albumin [6]): 93%

C[C@H](CCC(=O)O)[C@H]1CC[C@H]2[C@@H]3[C@@H](O)C[C@@H]4C[C@H](O)CC[C@]4(C)[C@H]3CC[C@]12C [UDCA]
LXRα Activation EC50 (LXRα): No activity
EC50 (CAR): > 250 µM
VDR Activation EC50 (VDR): No activity
CMC […] Na+ [1]: 6.0 mM
STCMC: Surface Tension at CMC [1]: 50.5 Dyne/cm
Ws: water solubility [7]: 7.5 µM
LogPA-: 1-octanol-water partition coefficient [8]: 2.2
EC50 (HepG2 cells [9]): > 1000 µM
PPARδ Activation EC50 (PPARδ): No activity
Albumin Binding (bovine serum albumin [6]): 94%

C[C@H](CCC(=O)NCCS(=O)(=O)O)[C@H]1CC[C@H]2[C@@H]3[C@@H](O)C[C@@H]4C[C@H](O)CC[C@]4(C)[C@H]3CC[C@]12C [TUDCA]
Ws: water solubility [7]: hs
CMC […] Na+ [10]: 2.2* mM
Albumin Binding (bovine serum albumin [11]): 67* %

C[C@H](CCC(=O)O)[C@H]1CC[C@H]2[C@@H]3CC[C@@H]4C[C@H](O)CC[C@]4(C)[C@H]3CC[C@]12C [LCA, lithocholic acid]
EC50 (HepG2 cells [2]): 65 µM
EC50 (HepG2 cells [3]): 105 µM

CN[C@@H]1C[C@H]2O[C@@](C)([C@@H]1OC)n1c3ccccc3c3c4c(c5c6ccccc6n2c5c31)C(=O)NC4 [Staurosporine]
EC50 (HepG2 cells [12]): 15 µM

C[C@H](CCC(=O)O)[C@H]1CCC2C3C(CC[C@@]21C)[C@@]1(C)CC[C@@H](O)CC1[C@@H](C)[C@@H]3O (some centres unmarked) [Compound 6MUDCA]
CMC […] Na+ [10]: 4.2* mM
Albumin Binding (bovine serum albumin [11]): 80* %

CC1(C)CC[C@]2(C(=O)O)CC[C@]3(C)C(=CC[C@@H]4[C@@]5(C)CC[C@H](O)C(C)(C)[C@@H]5CC[C@]43C)[C@@H]2C1 [OA, oleanolic acid]
Toxicity in animals ([13]; 100 mg/kg/day): some signs of toxicity
Tolerability in animals ([13]; lower dose than 100 mg/kg/day): well tolerated

C[C@H](CCC(=O)NCCS(=O)(=O)O)[C@H]1CC[C@H]2[C@@H]3[C@H](O)C[C@@H]4C[C@H](O)CC[C@]4(C)[C@H]3CC[C@]12C [TCDCA]
Ws: water solubility [7]: hs
CMC […] Na+ [10]: 3.0* mM
Albumin Binding (bovine serum albumin [11]): 70* %
